Data on 36 compounds can be found in PubChem BioAssay AID1083 (University of Pittsburgh Molecular Library Screening Center, 2008).

A word on the IC50: it is the point on the concentration scale where inhibition reaches its midpoint.

Molecules are shown by their SMILES. Values joined by “and” are separate entries in the source; they are usually repeats but may differ in a detail not shown here. Identical values can stand only once. Active and inactive are the calls of the source. The rule behind the calls is not given here.

This assay has as its target Serine/threonine-protein kinase PLK1 (Homo sapiens) (UniProt P53350). In words: PLK1 polo-box domain peptide-binding inhibitors, SAR follow-up, biochemical, fluorescence polarization, purchased analogs, concentration response (AID 1083). Conditions: Plk1 PBD peptide binding. Background: Fluorescence polarisation rises when a labelled molecule tumbles more slowly, as on binding a larger partner.

Sequence of Serine/threonine-protein kinase PLK1 (Homo sapiens) (P53350 whole entry, looked up, the tested form may be a part): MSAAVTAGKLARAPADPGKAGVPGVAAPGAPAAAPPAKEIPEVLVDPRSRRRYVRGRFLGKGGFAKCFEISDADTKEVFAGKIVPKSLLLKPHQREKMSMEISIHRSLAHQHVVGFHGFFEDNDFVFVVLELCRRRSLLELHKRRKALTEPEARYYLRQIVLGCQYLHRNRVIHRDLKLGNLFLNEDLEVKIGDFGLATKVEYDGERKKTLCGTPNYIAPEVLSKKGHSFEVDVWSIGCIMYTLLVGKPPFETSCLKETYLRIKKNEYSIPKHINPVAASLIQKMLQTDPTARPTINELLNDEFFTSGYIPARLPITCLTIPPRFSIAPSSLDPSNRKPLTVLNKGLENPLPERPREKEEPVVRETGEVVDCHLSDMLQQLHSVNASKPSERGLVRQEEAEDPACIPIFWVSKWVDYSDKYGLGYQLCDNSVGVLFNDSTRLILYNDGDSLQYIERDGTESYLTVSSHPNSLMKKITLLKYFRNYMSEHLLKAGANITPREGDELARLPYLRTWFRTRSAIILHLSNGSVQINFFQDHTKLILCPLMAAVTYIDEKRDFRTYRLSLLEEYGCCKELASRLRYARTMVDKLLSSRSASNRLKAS

On to `CC(=O)N(/N=C1\Sc2ccccc2C1=O)c1cccc(C)c1`, for which the IC50 is 14 µM. With `CC(=O)N(/N=C1\Sc2ccccc2C1=O)c1cc(C)ccc1C` the figure was > 50 µM (inactive); with `COc1ccc(-c2nnc3[nH]c(=O)n(C)c(=O)c3n2)cc1`, > 50 µM (inactive); with `COc1ccc(N(/C=C2\Sc3ccccc3C2=O)C(C)=O)cc1`, > 50 µM (inactive). With `CCOC(=O)c1ccc(NC(=O)c2cc3ccccc3c(=O)o2)cc1` the figure was > 50 µM (inactive). With `O=C(COC(=O)c1ccc(NC(=O)c2ccc([N+](=O)[O-])cc2)cc1)c1ccccc1` the figure was > 50 µM (inactive); with `CCn1nc(-c2ccc(OC)cc2)nc2c(=O)n(C)c(=O)nc1-2`, 0.912 µM; with `CCCC(=O)c1c(O)[nH]c(=O)[nH]c1=O`, > 50 µM (inactive). With `Cn1c(=O)[nH]c(=O)c2nc(-c3ccccc3)c(-c3ccccc3)nc21`, the IC50 is > 50 µM (inactive). For `CCCCCCC(=O)N(CN1C(=O)c2ccccc2C1=O)c1ccccc1OC` the value was > 50 µM (inactive). For `CC1CN(c2cc3nccnc3cc2F)CC(C)O1` (stereo unspecified) the value was > 50 µM (inactive); for `Cn1nc(-c2ccccc2)nc2c(=O)n(C)c(=O)nc1-2`, 1.45 µM; for `CCCOC(=O)c1ccc(NC(=O)c2ccc(OC)c([N+](=O)[O-])c2)cc1`, > 50 µM (inactive). With `CC(=O)N(/N=C1\Sc2ccccc2C1=O)c1ccccc1` the figure was 20.5 µM; with `CC(=O)N(CN1C(=O)c2ccccc2C1=O)c1cc(Br)ccc1C`, > 50 µM (inactive). In the case of `CCn1nc(-c2cccc(Cl)c2)nc2c(=O)n(C)c(=O)nc1-2`, the concentration for half-maximal inhibition (IC50) is 0.282 µM and > 50 µM (inactive). For `CCn1nc(-c2ccc(C)cc2)nc2c(=O)n(C)c(=O)nc1-2` the value was 0.932 µM; for `CCc1ccc(-c2nc3c(=O)n(C)c(=O)nc-3n(CC)n2)cc1`, 0.786 µM and > 50 µM (inactive); for `CC(=O)N(CN1C(=O)c2ccccc2C1=O)c1ccccc1Cl`, > 50 µM (inactive). For `CC(=O)N(/N=C1\Sc2ccccc2C1=O)c1ccccc1[N+](=O)[O-]` the value was 18.7 µM; for `CCOC(=O)c1ccc(NC(=O)c2ccc(NC(=O)CC)cc2)cc1`, > 50 µM (inactive); for `Cc1ccc(-c2nc3c(=O)n(C)c(=O)nc-3n(C)n2)cc1`, 1.35 µM. With `CC(=O)N(/N=C1\Sc2ccccc2C1=O)c1cccc(Br)c1` the figure was 20.9 µM.

Regarding `CCOC(=O)c1ccc(N=Cc2c(O)n(C3CCCCC3)c(=O)n(C3CCCCC3)c2=O)cc1`, the IC50 was > 50 µM (inactive). With `CC(=O)N(/N=C1\Sc2ccccc2C1=O)c1ccc(Br)cc1` the figure was 45.8 µM; with `CC(=O)N(/C=C1\Sc2ccccc2C1=O)c1ccc(I)cc1`, > 50 µM (inactive). With `Cn1nc(-c2ccc(F)cc2)nc2c(=O)n(C)c(=O)nc1-2` the figure was 0.325 µM.

For the compound `Cc1cc(-n2c(C)cc(C=C3C(=O)NC(=O)NC3=O)c2C)ccc1I`, the half-maximal inhibitory concentration (IC50) is 45.2 µM.

Take `CCOC(=O)c1ccc(NC(=O)C2OCCc3ccccc32)cc1` (stereo unspecified): the IC50 is > 50 µM (inactive). With `CC(=O)N(/C=C1\Sc2ccccc2C1=O)c1cccc(C)c1` the figure was > 50 µM (inactive). With `CCOc1ccc(-c2nc3c(=O)n(C)c(=O)nc-3n(C)n2)cc1OC` the figure was 0.022 µM. `CCn1nc(-c2ccccc2Br)nc2c(=O)n(C)c(=O)nc1-2`: the concentration for half-maximal inhibition (IC50) was 1.35 µM. With `CCn1nc(-c2ccccc2)nc2c(=O)n(C)c(=O)nc1-2` the figure was 0.524 µM; with `COc1cc(C=C2C(=O)NC(=O)NC2=O)ccc1OCc1c(C)no[n+]1[O-]`, > 50 µM (inactive); with `CCOC(=O)c1ccc(N=Cc2c(O)[nH]c(=O)[nH]c2=O)cc1`, > 50 µM (inactive). With `CCN(CC)CCOC(=O)c1ccc(N=Cc2c(O)n(-c3c(C)cc(C)cc3C)c(=O)[nH]c2=O)cc1` the figure was > 50 µM (inactive).
